Measured values published in a melting point compilation (Tetko et al.; mined from patent text by program, amines drawn as free bases though some values may be those of a salt).

Structure (SMILES)	melting point [°C]
N=C(N)c1ccc(N2CCN(c3ccc(SCC(=O)O)cc3)C2=O)cc1	> 275
CCOc1cc(CN2CCc3cc(O)ccc3C2)cc(OCC)c1OCC	140 to 142
CC(C#N)CCC(=O)O (centres undefined)	31.9 to 32.6
COc1ccc(-c2cc(C(N)=O)c(=O)n(CC3CCCC3)n2)cc1	182 to 183
CON1CCC2(CC1)NC(=O)C(Cl)(c1cc(C)ccc1C)C2=O (centres undefined)	142 to 144
CC(C)[C@@H](N)C(=O)NCC(F)(F)F	43 to 47
CCSC1c2cccc(O)c2C(=O)c2c(O)cccc21	117 to 118
COc1ccc(CCNC(=O)N(O)C(C)C)cc1OC	113 to 114
CONC(=O)CON1C(=O)c2ccccc2C1=O	179
Cc1nc(N2CCN(CC(C)C)C2=O)sc1C(=O)NCc1ccncc1	185 to 187
c1csc(N=C2SC[C@@H]3Cc4ccccc4CN23)c1	112
Cn1ccnc1-c1ccc(C(=O)CN=[N+]=[N-])cc1	> 250
CCCCCCCN(O)C(=O)N(C)C	30 to 31
Cc1nn(C)c(C)c1C(=O)NC1CCCCC1	185 to 186
CC(Oc1ccc(Oc2cnc3cc(Cl)ccc3n2)cc1)C(=O)Nc1ccc(OC(F)(F)C(F)F)cc1 (centres undefined)	146 to 148
CN(c1cccc(-c2ccnc3c(C(=O)c4cccs4)cnn23)c1)S(C)(=O)=O	169 to 170
CC(=O)NCCO[C@H]1COc2ccc3cnn(C[C@@H](C)O)c3c2C1	165 to 166
CC(C)(C)OC(=O)C1C=CCn2c(=O)n(CCCl)c(=O)n21 (centres undefined)	87 to 88
CCCn1c(=O)n2c(C)nnc2c2c1ncn2C	192 to 194
O=C(NCO)c1cncc([N+](=O)[O-])c1	145 to 146
O=C1c2ccccc2C2(Cc3ccccc3)NCCN12 (centres undefined)	115 to 117
CCNc1nc(Cl)nc(Nc2ccc(OC)cc2)n1	174 to 176
Nc1sc2c(c1C(=O)c1ccccc1)CCNC2	160 to 162
CC1(C)COc2ccc(OC(F)(F)F)cc2C(O)(c2ccccn2)C1 (centres undefined)	76
Nc1nc2[nH]c(CCC#Cc3ccc(C(=O)N[C@@H](CCC(=O)O)C(=O)O)s3)cc2c(=O)[nH]1	196 to 197
CC(CSc1cc(C(C)(C)C)c(O)c(C(C)(C)C)c1)N(O)C(N)=O (centres undefined)	65 to 66
COc1ccc(Br)c(C(=O)N2CCN(S(=O)(=O)c3cccc(F)c3)CC2)c1	145

Structure (SMILES)	melting point [°C]
NCCCCn1cnc2c(N)ncnc21	62 to 64
O=C1c2cc(F)ccc2CCC1CN1CCC2(CC1)C(=O)NCN2c1ccccc1 (centres undefined)	162 to 165
CC12CCC3C(CCC4CC(O)CCC43C)C1CCC2=S (centres undefined)	172 to 173
CCCCCCCCN[C@@H]1Cc2cc(OC)c(OC)cc2[C@H]1O (relative stereo)	133 to 135
Cc1nc(OC(C)C(=O)O)nn1-c1cccc(Cl)c1 (centres undefined)	101 to 103
Nc1cnc2cccnc2c1Cl	188 to 190
CC1(C)CCC(C)(C)c2cc(C(=O)c3cccc(I)c3)ccc21	130 to 131
CN(C=O)C1CCN(CC2=Cc3ccccc32)CC1	86 to 88
C#CCOCc1cc(-c2ccc(C(F)(F)F)n(C)c2=O)c(F)cc1Cl	99 to 101
O=[N+]([O-])c1cc2c(NCc3ccc4c(c3)OCO4)nc(-n3ccnc3)nc2s1	245
CCOCCOc1nc(NC(C)=O)nc2ccc(Cl)nc12	185
CC(C)(C)OC(=O)Nc1cc(OC(C)(C)C)c(-c2ccccc2F)cc1N	130
CC1(C)CCCN(C(=O)CN2C(=O)C(NC(=O)Nc3cccc(C(=O)OC(C)(C)C)c3)C(=O)N(c3ccccc3F)c3ccccc32)C1 (centres undefined)	170
C#Cc1cc(NC(=O)c2cnn(-c3ccc(Cl)cc3)c2C)ccc1N1CCC(N2CCOCC2)CC1	203 to 205
CCCCc1c(OC)cc(C(=O)O)nc1Cl	104 to 106
CC(CCC(=O)N(C)C)C1CC=C2C3=C(CCC21C)C1(C)CCC(O)C(C)(C)C1CC3 (centres undefined)	192 to 195
COc1nc(SCc2ccccc2)ncc1Br	48 to 49
COc1ccc(C2=NN(C3CCSCC3)C(=O)[C@H]3CC=CC[C@@H]23)cc1OC (relative stereo)	140 to 141
Cn1c(C(F)(F)F)cc2ccccc21	28 to 32
CCCCN(CCCC12CC3CC(CC(C3)C1)C2)C(=O)NCCCc1ccncc1	79.8 to 80.4
COC(=O)c1sc2ccc(C#N)cc2c1N	248
CC12CCC(C(=O)CC1=O)C2(C)C (centres undefined)	220
CC(C)(C)c1ccc(CN=C=S)cc1	44 to 47
Nc1nc(F)nc2c1ncn2C1OC(CO)C(O)C1F (centres undefined)	207 to 209
O=S(CCCCCOc1ccc(C2=C(c3ccccc3)CCCc3cc(O)ccc32)cc1)CCCC(F)(F)C(F)(F)F (centres undefined)	138 to 140
Fc1ccc2c(c1)C(c1ccccc1F)=NCCN2C1=NCCO1	180 to 181
ON=Cc1ccccc1-c1ccc2c(c1C=NO)OCO2	227 to 229

Further lines, results first:

melting point [°C]	Structure (SMILES)
198	CN(C)CCNS(=O)(=O)c1cc(NC(=O)c2cnn3c(C(F)(F)F)cc(-c4ccc(C(F)(F)F)cc4)nc23)c(Cl)s1
148 to 149	Cc1ccnc2c(Oc3ccc([N+](=O)[O-])cc3)cccc12
180 to 182	CN(C)C(=O)c1cc(-c2nccs2)[nH]c1C(CC1CCOCC1)c1ccc(S(=O)(=O)C2CC2)cc1 (centres undefined)
80 to 82	Nc1cccc(OCc2ccccc2)c1NC(=O)c1ccc(OCc2ccccc2)c(C23CC4CC(CC(C4)C2)C3)c1
166 to 168	CC(C(=O)Oc1cc(=O)n(-c2ccccc2)c2ncccc12)c1ccccc1 (centres undefined)
166	Cc1cc(-n2ccnc2)c2cccc(OCc3c(Cl)ccc(S(=O)(=O)N4CC[C@@H](O)C4)c3Cl)c2n1
214 to 216	C=CCN(c1nc(-c2cc3ccccc3[nH]c2=O)cs1)S(=O)(=O)c1ccccc1
237 to 238	CC(C)n1nc(-c2sc(N)nc2-c2cccc(F)c2)ccc1=O
178 to 182	NNC(=O)CSc1nc(Cl)cc(NCc2ccc(Cl)cc2)n1
91 to 94	O=C(NC1CCN(C/C=C\CC(c2ccccc2)c2ccccc2)CC1)c1ccccc1Oc1ccccc1
216 to 220	CS(=O)(=O)Nc1cccc(Nc2nc(NCc3ncc[nH]3)c3nc[nH]c3n2)c1
335 to 338	COc1ccccc1-n1c(=O)[nH]c2c(C(N)=O)nc(-c3ccc(C#N)cc3)nc21
160 to 164	COc1ccc(N=C(NC(=O)Nc2ccc(-c3ncn(-c4ccc(C(F)(F)F)cc4)n3)cc2)SCOC(=O)C(C)C)c(C)c1
97 to 98	Cc1ccc(CC(CC(=O)Oc2ccc([N+](=O)[O-])cc2)C(=O)Oc2ccc([N+](=O)[O-])cc2)cc1 (centres undefined)
187 to 188	CCN1c2ncccc2C(=O)N(C)c2ccc(-c3ccn(C)c3)nc21
118 to 120	CCn1c2ccccc2c2cc([N+](=O)[O-])ccc21
225 to 227	NC(=O)CN1CCN(c2ccc3c(c2)N2CCN=C2C(c2ccccc2)=[N+]3[O-])CC1
168	CC#CCOc1ccc(S(=O)C(C(=O)NO)c2ccccc2OC)cc1 (centres undefined)
136	CCOC(=O)c1cc(-c2ccc(OC)cc2)nn(Cc2ccc(Cl)cc2Cl)c1=O
134 to 136	COC(=O)c1ccccc1C(=O)c1ccc(-n2ccnc2)cc1
83 to 85	CC(C)CC(C)c1ccccc1NC(=O)c1cn(C)cc1C(F)(F)F (centres undefined)
50	OCCc1ccc(COc2cccc(-c3c(-c4ccccc4)cnc4c(C(F)(F)F)cccc34)c2)cc1
113	O=C(O)CCCCc1cc2nc(Cl)ccc2n1S(=O)(=O)c1ccccc1

melting point [°C]	Structure (SMILES)
174 to 175	N#CCCNC(=O)c1cccc(-c2cccc3cn(Cc4cccc(C(F)(F)F)c4)nc23)c1
60 to 63	CS(=O)(=O)c1ccc(-c2cc(C(=O)CCCO)nn2-c2ccc(C(F)(F)F)cc2)cc1
188 to 190	Cc1ccc(C)c(-c2cn(C)cc(-c3ccccc3)c2=O)c1
148 to 149	C=C1CCN(CC)c2c(CSc3nc4ccccc4[nH]3)cccc21
135 to 138	Cn1cc(C(=O)NCc2ccc(Cl)cc2)c(=O)c2cc(C(C)(C)CCO)ccc21
122 to 124	c1ccc(-c2ccn3nccc3n2)cc1
> 300	COc1ccccc1-c1ccc2c(c1)CCCc1c-2nc2ccc(F)cc2c1C(=O)O
139	CC1=C(C(=O)N(C)Cc2ccc(Cl)cc2)SC2=NC(C)(C)CN21
240 to 244	CCCn1c(C(=O)OC)cc(=O)c2oc3ccc(Cl)cc3c(=O)c21
169 to 172	CCCCc1nc2c(N)nc3ccccc3c2n1CCCC1(C)OCCO1
170 to 172	CCn1ncc2c(NCc3ccc(OCCN4CCOCC4)cc3)c3ccccc3nc21
116 to 118	Cc1cc(C(O)(c2ccccc2)c2ccccc2)on1
111 to 114	O=C(SCC(Cc1ccc(Cl)cc1)C(=O)O)c1ccccc1 (centres undefined)
245 to 247	COc1ccc(-c2c(-c3ccc(S(C)(=O)=O)cc3)n(C)n(C)c2=O)cc1
103 to 106	COc1ccc([C@@H]2Sc3cc(Cl)ccc3N(CCCCl)C(=O)[C@@H]2O)cc1 (relative stereo)
148 to 149	CC(=O)N1CCN=C1Nc1cc(C)nn1Cc1ccccc1
189 to 190	CCC(C)(C)NC(Nc1cc(OC)cc(OC)c1)=C(C#N)S(=O)(=O)c1ccc(Cl)cc1
178 to 180	OC(c1ccccc1)c1cc2ccncc2[nH]1 (centres undefined)
118 to 123	CCc1nc2c(C)cc(C)nc2n1Cc1ccc(C(CC(=O)NS(C)(=O)=O)c2ccccc2)cc1 (centres undefined)
151 to 153	CC(C)Oc1cc(Oc2ccc(S(C)(=O)=O)cn2)cc2cc(C3=NCC(CC(C)(C)O)S3)[nH]c12 (centres undefined)
86.5 to 88	CCOC(=O)COc1ccc(S(=O)(=O)CCNS(=O)(=O)c2ccccc2)cc1
156 to 157	CCC(CC)N(O)C(=O)Nc1ccc(C(=O)c2ccccc2)cc1
